Data on 16 molecules can be found in patent US20090181963A1, “3H-[1,2,3]TRIAZOLO[4,5-D]PYRIMIDINE COMPOUNDS, THEIR USE AS mTOR KINASE AND PI3 KINASE INHIBITORS, AND THEIR [sequence]” (Wyeth, priority 2008, published 2009).

The melting point is the temperature of the solid-liquid transition. As a reminder, the IC50 is the point on the concentration scale where inhibition reaches its midpoint.

Data set [1] has as its target PI3 Kinase γ (Homo sapiens, UniProt P48736). Description: Fluorescence polarization assay for PI3K (PI3 Kinase γ). It is filed as biochemical. The conditions noted are these: diC8-PI(4,5)P2 substrate, 25 μM ATP, one hour at 25° C.
Data set [2] deals with PI3 Kinase α (Homo sapiens, UniProt P42336). Description: Fluorescence polarization assay for PI3K (PI3 Kinase α). It is filed as biochemical. Conditions: diC8-PI(4,5)P2 substrate, 25 μM ATP, one hour at 25° C. (Polarisation of emitted light reports the rotation of a fluorescent probe.)
Chain of PI3 Kinase α (P42336 whole entry): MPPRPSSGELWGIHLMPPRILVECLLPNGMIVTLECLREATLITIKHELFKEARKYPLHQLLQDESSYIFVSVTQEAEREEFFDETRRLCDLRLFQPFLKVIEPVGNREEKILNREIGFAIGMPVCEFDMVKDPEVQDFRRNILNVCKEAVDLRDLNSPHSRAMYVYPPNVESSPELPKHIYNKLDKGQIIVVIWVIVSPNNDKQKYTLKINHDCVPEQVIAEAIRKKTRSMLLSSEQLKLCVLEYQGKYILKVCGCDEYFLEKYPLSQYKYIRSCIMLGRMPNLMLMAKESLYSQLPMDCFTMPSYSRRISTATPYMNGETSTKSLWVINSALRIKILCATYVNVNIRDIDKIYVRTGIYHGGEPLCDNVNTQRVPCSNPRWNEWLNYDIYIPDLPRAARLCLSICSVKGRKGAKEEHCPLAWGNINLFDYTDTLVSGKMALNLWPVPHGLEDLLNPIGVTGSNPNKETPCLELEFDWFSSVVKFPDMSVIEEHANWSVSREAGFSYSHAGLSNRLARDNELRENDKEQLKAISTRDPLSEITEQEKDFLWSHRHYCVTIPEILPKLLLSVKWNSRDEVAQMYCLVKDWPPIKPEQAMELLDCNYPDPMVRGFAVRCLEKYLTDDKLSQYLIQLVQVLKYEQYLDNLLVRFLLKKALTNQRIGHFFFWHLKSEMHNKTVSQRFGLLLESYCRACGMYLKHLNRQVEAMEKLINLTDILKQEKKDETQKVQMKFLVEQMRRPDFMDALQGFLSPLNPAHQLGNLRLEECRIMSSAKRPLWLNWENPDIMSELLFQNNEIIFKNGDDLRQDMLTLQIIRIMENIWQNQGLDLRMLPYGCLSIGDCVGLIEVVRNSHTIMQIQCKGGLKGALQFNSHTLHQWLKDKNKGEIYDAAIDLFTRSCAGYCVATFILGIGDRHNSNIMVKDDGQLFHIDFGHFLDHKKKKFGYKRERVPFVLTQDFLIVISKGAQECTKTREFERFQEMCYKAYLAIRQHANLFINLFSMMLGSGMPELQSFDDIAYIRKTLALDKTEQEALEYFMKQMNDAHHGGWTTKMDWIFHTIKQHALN
Chain of PI3 Kinase α (P27986 whole entry partner): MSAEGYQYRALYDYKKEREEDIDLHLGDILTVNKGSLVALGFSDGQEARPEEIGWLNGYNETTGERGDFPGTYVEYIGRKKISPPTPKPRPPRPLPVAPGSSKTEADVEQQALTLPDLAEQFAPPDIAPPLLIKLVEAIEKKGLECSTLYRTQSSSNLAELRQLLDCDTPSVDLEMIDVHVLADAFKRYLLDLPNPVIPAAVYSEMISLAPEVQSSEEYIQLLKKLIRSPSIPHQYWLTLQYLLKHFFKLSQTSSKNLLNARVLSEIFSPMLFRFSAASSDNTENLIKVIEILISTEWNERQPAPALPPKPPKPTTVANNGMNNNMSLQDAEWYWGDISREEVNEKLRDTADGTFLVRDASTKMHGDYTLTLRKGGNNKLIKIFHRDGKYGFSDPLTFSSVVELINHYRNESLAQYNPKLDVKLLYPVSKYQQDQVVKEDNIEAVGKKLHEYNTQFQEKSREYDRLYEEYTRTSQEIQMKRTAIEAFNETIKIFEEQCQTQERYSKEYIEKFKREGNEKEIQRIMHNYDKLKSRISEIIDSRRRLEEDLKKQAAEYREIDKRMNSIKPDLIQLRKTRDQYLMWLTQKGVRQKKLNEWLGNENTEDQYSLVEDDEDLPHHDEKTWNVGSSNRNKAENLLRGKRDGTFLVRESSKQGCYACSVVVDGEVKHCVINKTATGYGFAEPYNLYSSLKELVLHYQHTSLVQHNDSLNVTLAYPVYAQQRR
The subject of data set [3] is human tumor xenograft models. Conditions: cited from earlier work.
Data set [4] has as its system PI3K. The conditions noted are these: reported, Raynaud et al 2007; read-out: IC50 PI3K (second named); cited from earlier work.
Data set [5] addresses mTOR enzymes (Homo sapiens, UniProt P42345). The conditions noted are these: read-out: IC50 mTOR enzymes; reported in the literature; cited from earlier work.

Where a name gives a salt, the structure may show the parent alone. Read-outs that look alike come from different tables or passages of the source.

Chain of PI3 Kinase γ (P48736 whole entry): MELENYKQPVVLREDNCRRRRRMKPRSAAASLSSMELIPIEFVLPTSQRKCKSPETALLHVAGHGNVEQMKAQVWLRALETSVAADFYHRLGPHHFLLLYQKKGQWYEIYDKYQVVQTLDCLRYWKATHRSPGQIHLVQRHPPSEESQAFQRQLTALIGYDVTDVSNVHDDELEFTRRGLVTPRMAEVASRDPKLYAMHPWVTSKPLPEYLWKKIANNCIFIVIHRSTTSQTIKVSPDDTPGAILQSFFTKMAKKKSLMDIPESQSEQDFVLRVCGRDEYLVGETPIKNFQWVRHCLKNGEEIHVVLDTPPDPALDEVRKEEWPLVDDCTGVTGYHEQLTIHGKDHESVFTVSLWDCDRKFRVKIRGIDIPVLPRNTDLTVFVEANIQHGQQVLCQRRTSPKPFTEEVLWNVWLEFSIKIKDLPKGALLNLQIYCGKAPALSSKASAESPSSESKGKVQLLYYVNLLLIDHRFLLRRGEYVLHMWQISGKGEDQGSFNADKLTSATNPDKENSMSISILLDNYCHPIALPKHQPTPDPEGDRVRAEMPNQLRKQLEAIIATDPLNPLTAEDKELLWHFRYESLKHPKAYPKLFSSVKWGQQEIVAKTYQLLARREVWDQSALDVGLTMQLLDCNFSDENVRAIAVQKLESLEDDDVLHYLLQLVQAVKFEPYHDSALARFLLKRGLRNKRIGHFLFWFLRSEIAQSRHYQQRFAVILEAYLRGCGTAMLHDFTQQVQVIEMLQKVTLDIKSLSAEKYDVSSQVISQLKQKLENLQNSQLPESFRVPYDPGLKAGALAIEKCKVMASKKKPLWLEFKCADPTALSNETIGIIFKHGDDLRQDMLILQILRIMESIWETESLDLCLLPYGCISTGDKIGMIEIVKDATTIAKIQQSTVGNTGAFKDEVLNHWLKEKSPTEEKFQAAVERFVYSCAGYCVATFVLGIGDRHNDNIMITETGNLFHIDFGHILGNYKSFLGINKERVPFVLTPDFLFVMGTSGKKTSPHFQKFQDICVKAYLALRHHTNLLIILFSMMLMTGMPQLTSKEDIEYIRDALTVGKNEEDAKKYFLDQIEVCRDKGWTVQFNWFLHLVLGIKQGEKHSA

In turn, `O=C(Nc1ccncc1)Nc1ccc(-c2nc(N3CCOCC3)c3nnn(C4CCOCC4)c3n2)cc1` (as salt: HCl) [Example 198, 1-{4-[7-morpholin-4-yl-3-(tetrahydro-2H-pyran-4-yl)-3H-[1,2,3]triazolo[4,5-d]pyrimidin-5-yl]phenyl}-3-pyridin-4-ylurea] yielded a melting point of 332 °C.
`Cn1nnc2c(N3CCOCC3)nc(-c3ccc(NC(=O)Nc4ccsc4)cc3)nc21` [Example 201, 1-[4-(3-methyl-7-morpholin-4-yl-3H-[1,2,3]triazolo[4,5-d]pyrimidin-5-yl)phenyl]-3-(3-thienyl)urea]: the melting point turned out to be 272 °C. Also, the IC50 in data set [1] is 25.5 nM. The molecule also displayed an IC50 in data set [2] of 4.5 nM.
Turning to `CNC(=O)Cn1nnc2c(N3CCOCC3)nc(-c3cccc(CO)c3)nc21` [Example 236, 2-{5-[3-(hydroxymethyl)phenyl]-7-morpholin-4-yl-3H-[1,2,3]triazolo[4,5-d]pyrimidin-3-yl}-N-methylacetamide], the IC50 turned out to be 1880 nM in data set [1] and 560 nM in data set [2].
With `NC(=O)Cn1nnc2c(N3CCOCC3)nc(-c3cccc(CO)c3)nc21` [Example 237, 2-{5-[3-(hydroxymethyl)phenyl]-7-morpholin-4-yl-3H-[1,2,3]triazolo[4,5-d]pyrimidin-3-yl}acetamide], the IC50 in data set [1] came out at 2590 nM; in data set [2], 460 nM.
Turning to `O=C(Cn1nnc2c(N3CCOCC3)nc(-c3cccc(CO)c3)nc21)Nc1ccc(F)cc1` [Example 238, N-(4-fluorophenyl)-2-{5-[3-(hydroxymethyl)phenyl]-7-morpholin-4-yl-3H-[1,2,3]triazolo[4,5-d]pyrimidin-3-yl}acetamide], the IC50 in data set [1] came out at 2070 nM; in data set [2], 245 nM.
`CN(C)CCNC(=O)Cn1nnc2c(N3CCOCC3)nc(-c3cccc(CO)c3)nc21` [Example 239, N-[2-(dimethylamino)ethyl]-2-{5-[3-(hydroxymethyl)phenyl]-7-morpholin-4-yl-3H-[1,2,3]triazolo[4,5-d]pyrimidin-3-yl}acetamide]: the IC50 is 5060 nM in data set [1] and 1130 nM in data set [2].
The matching figures for `O=C(O)Cn1nnc2c(N3CCOCC3)nc(-c3cccc(CO)c3)nc21` [Example 240, {5-[3-(hydroxymethyl)phenyl]-7-morpholin-4-yl-3H-[1,2,3]triazolo[4,5-d]pyrimidin-3-yl}acetic acid]: 1700 nM and 658 nM.
With `COC(=O)c1ccc(Cn2nnc3c(N4CCOCC4)nc(-c4cccc(O)c4)nc32)cc1` [Example 241, methyl 4-{[5-(3-hydroxyphenyl)-7-morpholin-4-yl-3H-[1,2,3]triazolo[4,5-d]pyrimidin-3-yl]methyl}benzoate], the values for the IC50 in data set [1] and in data set [2] were 4910 nM and 630 nM, respectively.
For `O=C(O)c1ccc(Cn2nnc3c(N4CCOCC4)nc(-c4cccc(O)c4)nc32)cc1` [Example 242, 4-{[5-(3-hydroxyphenyl)-7-morpholin-4-yl-3H-[1,2,3]triazolo[4,5-d]pyrimidin-3-yl]methyl}benzoic acid], the IC50 in data set [1] is 842 nM; in data set [2], 509 nM.
Take `COC(=O)c1ccc(Cn2nnc3c(N4CCOCC4)nc(-c4cccc(CO)c4)nc32)cc1` [Example 243, methyl 4-({5-[3-(hydroxymethyl)phenyl]-7-morpholin-4-yl-3H-[1,2,3]triazolo[4,5-d]pyrimidin-3-yl}methyl)benzoate]: the IC50 came out at 9590 nM in data set [1] and 765 nM in data set [2].
As to `COC(=O)c1ccc(Cn2nnc3c(N4CCOCC4)nc(-c4cc(O)cc(F)c4)nc32)cc1` [Example 244, methyl 4-{[5-(3-fluoro-5-hydroxyphenyl)-7-morpholin-4-yl-3H-[1,2,3]triazolo[4,5-d]pyrimidin-3-yl]methyl}benzoate], the figures for the IC50 in data set [1] and in data set [2] were 1610 nM and 1510 nM, respectively.
In the case of `O=C(O)Cn1nnc2c(N3CCOCC3)nc(-c3cccc(O)c3)nc21` [Example 245, [5-(3-hydroxyphenyl)-7-morpholin-4-yl-3H-[1,2,3]triazolo[4,5-d]pyrimidin-3-yl]acetic acid], the IC50 worked out at 1940 nM in data set [1] and 298 nM in data set [2].
For the molecule `Cn1c(=O)n(-c2ccc(C(C)(C)C#N)cc2)c2c3cc(-c4cnc5ccccc5c4)ccc3ncc21` [NVP-BEZ-235, 2-methyl-2-(4-(3-methyl-2-oxo-8-(quinolin-3-yl)-2,3-dihydro-1H-imidazo[4,5-c]quinolin-1-yl)phenyl)propanenitrile], in data set [3] (prostrate (PC-3) and glioblastoma (U-87)), the “activity in human tumor xenograft models” value is “demonstrated activity”.
With `Oc1cccc(-c2nc(N3CCOCC3)c3oc4ncccc4c3n2)c1` [PI103, 3-(4-(4-morpholinyl)pyrido[3′,2′:4,5]furo[3,2-d]pyrimidin-2-yl)phenol], in data set [3] (I.P. dosing in mice, U87MG, PC3, MDA-MB-468, MDA-MB-435, HCT 116, SKOV3, IGROV-1), the “activity in human tumor xenograft models” value is “demonstrated activity”. For the same molecule, the IC50 in data set [4] is […].
Take `CO[C@H]1C[C@@H]2CC[C@@H](C)[C@@](O)(O2)C(=O)C(=O)N2CCCC[C@H]2C(=O)O[C@H]([C@H](C)C[C@@H]2CC[C@@H](OC(=O)C(C)(CO)CO)[C@H](OC)C2)CC(=O)[C@H](C)/C=C(\C)[C@@H](O)[C@@H](OC)C(=O)[C@H](C)C[C@H](C)/C=C/C=C/C=C/1C` [Torisel]: in data set [3] (NOS/SCID xenograft mouse model of acute lymphoblastic leukemia), the “activity in xenograft mouse model” value was “active”.
As for `FC(F)c1nc2ccccc2n1-c1nc(N2CCOCC2)nc(N2CCOCC2)n1` [ZSTK474, 2-(2-difluoromethylbenzoimidazol-1-yl)-4,6-dimorpholino-1,3,5-triazine], the “tumor growth in mouse human xenograft cancer models” value in data set [3] (chronic oral administration, 400 mg/kg, A549, PC-3, WiDr) is “completely inhibited growth”. The IC50 in data set [5] is greater than 10000 nM.
